What was measured:
TSPO [1] = target: T1, TSPO (Mus musculus, UniProt P50637); test: SPECT-CT imaging of LPS-induced lung inflammation in mice; format: in vivo; settings: for lung signal to background ratio: 1 h postinjection, lungs vs muscle
Experimental: Eight- to 10-week-old female CD-1 mice (Charles River Labs) were imaged. Mice were anesthetized by brief isoflurane sedation. While anesthetized, intranasal instillation was conducted by placing 10 μg/60 μL (167 μg/mL) of lipopolysaccharide (LPS) onto the nares (Szarka et al., “A murine model of pulmonary damage induced by lipopolysaccharide via intranasal instillation,” J. Immunol. Methods, vol. 202, pp. 49-57, 1997). The 60 μL sample was applied onto the nares as three 20 μL drops. Phosphate-buffered saline (PBS) was administered in a similar fashion and used as the control.
For single photon emission computed tomography-computed tomography (SPECT-CT) imaging 18.5 MBq (500 μCi) of [^125I]1 was injected via the tail vein into the LPS and PBS treated mice and imaged 1 h later, which corresponded to 24 h after the administration of LPS or PBS. That time point was chosen since it represents the time at which there is maximum inflammation in the lungs, as determined by a time course study with histologic correlation (data not shown). Each mouse was anesthetized with isoflurane and maintained under 1-2% isoflurane in oxygen. The mouse was positioned on the X-SPECT (Gamma Medica, Northridge, Calif.) gantry and was scanned using two opposing low energy pinhole collimators (Gamma Medica) rotating through 360° in 3° increments for 20 s per increment. Images were reconstructed using LumaGem software that accompanies the X-SPECT. Immediately following SPECT acquisition, the mice were scanned by CT over a 3-cm field-of-view using a 600-μA, 50 kV beam. […] Data were reconstructed using the ordered subsets-expectation maximization (OS-EM) algorithm. The signal to background ratio was calculated from the images by drawing regions of interest over the lungs (signal) and muscle, (background).

TSPO [2] = target: T1, TSPO; test: Quantitative receptor autoradiography with [125I]-IodoDPA713 on Sandhoff mouse brain sections; format: binding; parameters: Fresh-frozen brains were sectioned (20 μm) on a freezing cryostat in the horizontal plane; from tissue; host or cells: mouse brain sections (fresh-frozen for A4, PLP-fixed for A5)
Experimental: Fresh-frozen brains were sectioned (20 μm) on a freezing cryostat in the horizontal plane. Brain sections were thaw-mounted onto poly-L-lysine-coated slides (Sigma-Aldrich, St. Louis, Mo.) and stored at −20° C. until used. [^125I]-IodoDPA713 autoradiography to measure TSPO levels were performed on adjacent brain sections using the same procedures. Slides were thawed and dried at 37° C. for 30 min and prewashed in 50 mM Tris-HCl buffer (pH 7.4) for 5 min at room temperature. Sections were then incubated in 0.5 nM [^125I]-IodoDPA713 in buffer for 30 min at room temperature. For non-specific binding, adjacent sections were incubated in the presence of […] racemic PK11195. The reaction was terminated by two 3-min washes in cold buffer (4° C.) and two dips in cold deionized water (4° C.). Sections incubated with [^125I]-IodoDPA713 were apposed to Kodak Bio-Max MR films with [^125I]-Microscales (GE Healthcare, Piscataway, N.J.) for 1 h. Images were acquired and quantified using the MCID software (InterFocus Imaging Ltd, Cambridge, England).

TSPO [3] = target: T1, TSPO; test: [125I]-IodoDPA713 microSPECT/CT imaging of heart in coxsackievirus-induced myocarditis mice; format: in vivo
Experimental: (§1) An X-SPECT small-animal SPECT/CT system (Gamma Medica-Ideas) was used for image acquisition. Each mouse was anesthetized with isofluorane prior to imaging. About 1-2 mCi of [^125I]-IodoDPA713 was injected into each mouse via intravenous injection, and images were acquired immediately after injection. The SPECT projection data were acquired using 2 low-energy, high-resolution parallel-hole collimators with a radius of rotation of 4.65 cm (spatial resolution, 1.6 mm). The tomographic data were acquired in 64 projections over 360° at 20 s per projection. After tomography, CT was acquired in 512 projections to allow anatomic coregistration. Data were reconstructed using the ordered subsets-expectation maximization algorithm and analyzed using AMIDE software (free software provided by SourceForge). Data was analyzed using Analysis software, and time activity curve of the [^125I]-IodoDPA713 uptake was generated for each mouse. Three mice per treatment were scanned for the study.

TSPO [4] = target: T2, TSPO (Rattus norvegicus, UniProt P16257); test: In vitro autoradiography with [125I]1 on rat brain sections (neurotoxicant model of brain inflammation); format: binding
T2 construct: Fresh-frozen brains were sectioned (20 μm) on a freezing cryostat in the horizontal plane; from tissue; host or cells: rat brain sections (control and neurotoxicant-treated)
Experimental: Fresh-frozen brains were sectioned (20 μm) on a freezing cryostat in the horizontal plane. Brain sections were thaw-mounted onto poly-L-lysine-coated slides (Sigma) and stored at −20° C. until used. Autoradiography using [^125I]IodoDPA-713 ([^125I]1) was performed on adjacent brain sections using the following procedures. Slides were thawed and dried at 37° C. for 30 min and prewashed in 50 mM Tris-HCl buffer (pH 7.4) for 5 min at room temperature. Sections were then incubated in 1.4 nM [^125I]1 in 50 mM Tris-HCl buffer for 30 min at room temperature. For non-specific binding, adjacent sections were incubated in the presence of 10 μM racemic PK11195. The reaction was terminated by two 3 min washes in cold buffer (4° C.) and two dips in cold deionized water (4° C.). Sections were air-dried and apposed to Kodak Bio-Max MR film for 1 h. Images were acquired using the MCID image analysis software (InterFocus Imaging Ltd., Cambridge, England).
The first study involved a model of brain inflammation in which rats were exposed to a seizure-inducing neurotoxicant (FIG. 2). Note that higher levels of [^125I]1 were present in the neurotoxicant-treated rat brain (FIG. 2B) than in control brain (FIG. 2A). Exposure of the tissue specimens to [^125I]1 to generate these images required only 60 min, as opposed to 4-5 weeks often needed for tritium-labeled compounds when exposing the samples to film.

TSPO [5] = target: T1, TSPO; test: [125I]-IodoDPA713 microSPECT/CT dynamic in vivo imaging of TSPO in Sandhoff disease mice; parameters: Fresh-frozen brains were sectioned (20 μm) on a freezing cryostat in the horizontal plane; from tissue; host or cells: mouse brain sections (fresh-frozen for A4, PLP-fixed for A5)
Experimental: as §1, with “genotype” for “treatment”, “study. For the blocking study, non-radioactive IodoDPA713 (20 μM) was intravenously co-injected with [^125I]-IodoDPA713, and images were acquired immediately after [^125I] injection.” for “study.”

TSPO [6] = target: T3, TSPO (Homo sapiens, UniProt P30536); settings: cited from earlier work
TSPO [7] = target: T3, TSPO; settings: first human study; cited from earlier work
TSPO [8] = settings: cited from earlier work
TSPO [9] = target: T1, TSPO; settings: Sandhoff mice at 4 months of age; cited from earlier work

T3 sequence (P30536 whole entry): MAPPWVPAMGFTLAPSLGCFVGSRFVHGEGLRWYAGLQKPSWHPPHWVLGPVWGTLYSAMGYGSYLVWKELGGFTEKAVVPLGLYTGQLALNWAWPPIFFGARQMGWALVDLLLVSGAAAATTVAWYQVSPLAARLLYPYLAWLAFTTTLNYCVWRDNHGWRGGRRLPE

For `CCN(CC)C(=O)Cc1c(-c2ccc(OC)c([125I])c2)nn2c(C)cc(C)nc12` [[^125I]1, N,N-Diethyl-2-[2-(3-[^125I]-iodo-4-methoxyphenyl)-5,7-dimethylpyrazolo[1,5-a]pyrimidin-3-yl]acetamide], the “lung signal to background ratio” value (TSPO [1]; LPS treated mouse) was 21.2, the “uptake in inflamed mouse lungs relative to normal lungs” value (TSPO [1]; SPECT-CT, FIG. 3) was 1.5 fold and the “lung signal to background ratio” value (TSPO [1]; control mouse) was 14.6. For the same compound, the “binding in cerebellum, Sandhoff versus wildtype” value (TSPO [2]; 2 months, did not reach statistical significance, p=0.098) was “modest increase”, the “binding to TSPO in thalamus, Sandhoff versus wildtype” value (TSPO [2]; 2 months, p=0.0007) was “significant increases” and the “binding to TSPO in brainstem, Sandhoff versus wildtype” value (TSPO [2]; 2 months, p=0.0011) was “significant increases”. For the same compound, the “binding in hippocampus, Sandhoff versus wildtype” value (TSPO [2]; 2 months, p=0.63) was “no significant increase”, the “binding in cerebral cortex, Sandhoff versus wildtype” value (TSPO [2]; 2 months, p=0.98) was “no significant increase” and the “binding in thalamus, Sandhoff versus wildtype” value (TSPO [2]; 3 months, p<0.0001) was “increased TSPO binding”. The “binding in brainstem, Sandhoff versus wildtype” value (TSPO [2]; 3 months, p=0.0016) was “increased TSPO binding”, the “binding in cerebral cortex, Sandhoff versus wildtype” value (TSPO [2]; 3 months, p=0.0037) was “increased binding” and the “binding in cerebellum, Sandhoff versus wildtype” value (TSPO [2]; 3 months, p=0.0151) was “increased binding”. For the same compound, the “binding in hippocampus, Sandhoff versus wildtype” value (TSPO [2]; 3 months, p=0.5912) was “no increased TSPO binding”, the “organ specificity of increased uptake (lungs and liver also analyzed)” value (TSPO [3]; coxsackievirus-injected mice) was “heart-specific” and the “tracer uptake (SUV) in heart, coxsackievirus-injected versus PBS-injected control mice” value (TSPO [3]; n=3, p<0.05, FIG. 15) was “statistically significant increase”. For the same compound, the “level of [125I]1 binding in neurotoxicant-treated rat brain versus control brain” value (TSPO [4]; 1.4 nM tracer, horizontal brain sections, FIG. 2A/2B) was “higher levels”, the “blocking of [125I]1 uptake by PK11195 (specificity for TSPO)” value (TSPO [4]; neurotoxicant-treated rat, 10 μM PK11195, FIG. 2C) was “almost completely blocked” and the “tracer uptake (SUV) in thalamus, Sandhoff versus wildtype” value (TSPO [5]; 2 months, p=0.0484) was “statistically significant increase”. For the same compound, the “tracer uptake (SUV) in brainstem, Sandhoff versus wildtype” value (TSPO [5]; 3 months, p=0.0172) was “statistically significant increase”, the “tracer uptake with blocker versus without blocker” value (TSPO [5]; Sandhoff mouse, co-injected nonradioactive IodoDPA713 (20 μM)) was “reduced uptake” and the “tracer uptake (SUV) in thalamus, cerebellum and brainstem, Sandhoff versus wildtype” value (TSPO [5]; quantitative analysis, FIG. 8K) was “trend of increased uptake”. The “tracer uptake in thalamus, Sandhoff versus wildtype (time-activity curve)” value (TSPO [5]; thalamus, FIG. 8J) was “consistently had higher uptake”.

In the case of `CCN(CC)C(=O)Cc1c(-c2ccc(OC)cc2)nn2c(C)cc(C)nc12` [DPA-713, N,N-diethyl-2-[2-(4-methoxy-phenyl)-5,7-dimethyl-pyrazolo[1,5-a]pyrimidin-3-yl]-acetamide], the “affinity for TSPO relative to PK11195” value (TSPO [6]) is listed as “nearly twice”.

For `CCN(CC)C(=O)Cc1c(-c2ccc(OC)cc2)nn2c(C)cc(C)nc12` [[^11C]DPA-713], the “binding potential relative to [11C]PK11195” value (TSPO [7]) is listed as “higher binding potential”, the “brain uptake relative to [11C]-PK11195” value (TSPO [8]; PET imaging) is listed as “higher brain uptake” and the “signal-to-noise ratios relative to [11C]PK11195” value (TSPO [8]; rodent model of brain injury) is listed as “higher signal-to-noise ratios”.

In the case of `CCC(C)N(C)C(=O)c1cc2ccccc2c(-c2ccccc2Cl)n1` (centres unmarked) [[^11C]PK11195], the “PET uptake in Sandhoff mice compared to wildtype” value (TSPO [9]) is given as “higher”, the brain uptake (TSPO [8]; in vivo) is given as “poor brain uptake” and the non-specific binding (TSPO [8]; in vivo) is given as “significant non-specific binding”.

From patent US8778304B2, “TSPO-targeting compounds and uses thereof” (The Johns Hopkins University, priority 2010, dated 2014)
